Each molecule was assayed on macrophages derived from mouse bone marrow (assay: LPS-induced secretion of inflammatory factors from macrophages, ELISA of supernatant). Conditions: 30 umol/L 2 hours before LPS 500 ng/ml for 24 hours; FIG. 2.
Format: cell-based
Procedure: macrophage grouping (in vitro):
Cultivate macrophages derived from mouse bone marrow in vitro.
The experiment was divided into 8 groups, namely: • Control group (untreated mouse bone marrow-derived macrophages), • LPS group (500 ng/ml LPS stimulated macrophages for 24 hours), • LPS+TJ-2 group (2 hours before LPS stimulation, administer 30 umol/L TJ-2 drug stimulation), • LPS+TJ-5 group (2 hours before LPS stimulation, administer 30 umol/L TJ-5 drug stimulation), • LPS+TJ-8 group (2 hours before LPS stimulation, administer 30 umol/L TJ-8 drug stimulation), • LPS+TJ-9 group (2 hours before LPS stimulation, administer 30 umol/L TJ-9 drug stimulation), • LPS+TJ-11 group (2 hours before LPS stimulation, administer 30 umol/L TJ-11 drug stimulation), • and LPS+TJ-12 group (2 hours before LPS stimulation, administer 30 umol/L TJ-12 drug stimulation).
After 24 hours of LPS stimulation, the cell culture supernatant was removed and ELISA was performed to detect the concentration of various inflammatory factors in the supernatant.

Row | SMILES | inhibitory effect on inflammatory factors compared among the compounds | secretion of various inflammatory factors in macrophages (IL-1β, Il-6, TNF-α, IL-18, IL-17)
1 | COc1cccc(-c2csc(NC(=O)CCN3CCN(Cc4ccccc4)CC3)n2)c1 [INNA1609, 3-(4-benzylpiperazine-1-yl)-N-(4-(3-methoxyphenyl)thiazole-2-yl) propionamide] | have the same inhibitory effect on inflammatory factors | can inhibit the secretion of various inflammatory factors in macrophages
2 | Cc1ccc(N2CCN(CC(=O)Nc3nc(-c4ccccc4)cs3)CC2)cc1 [INNA1602, 2-(4-(4-methylphenyl)piperazine-1-yl) -N-(4-phenylthiazole-2-yl) acetamide] | have the same inhibitory effect on inflammatory factors | can inhibit the secretion of various inflammatory factors in macrophages
3 | Cc1cccc(-c2csc(NC(=O)CN3CCN(Cc4ccccc4)CC3)n2)c1 [INNA1612, 2-(4-benzyl-base)piperazine-1-N-(4-(3-methylphenyl)thiazole-2-base) acetamide] | have the same inhibitory effect on inflammatory factors | can inhibit the secretion of various inflammatory factors in macrophages
4 | O=C(CN1CCN(Cc2ccccc2)CC1)Nc1nc(-c2ccccc2)cs1 [INNA1608, 2-(4-benzylpiperazine-1-yl)-N-(4-phenylthiazole-2-yl) acetamide] | have the same inhibitory effect on inflammatory factors | can inhibit the secretion of various inflammatory factors in macrophages
5 | Cc1cccc(-c2csc(NC(=O)CCN3CCN(c4cccc(C)c4)CC3)n2)c1 [INNA1611] | have the same inhibitory effect on inflammatory factors | can inhibit the secretion of various inflammatory factors in macrophages

— US20240180898A1, “USE OF AMINOTHIAZOLE DERIVATIVE IN TREATMENT OF IMMUNE INFLAMMATION” (INNAMUNE PHARMACEUTICAL CO. LTD., priority 2021, published 2024)
